Results taken from patent US20250154212A1, “METHOD OF DISRUPTING MEMORY AND LIPOPEPTIDE FOR USE IN SUCH METHOD” (The Research Foundation for The State University of New York, priority 2023, published 2025).
“Also recorded” adds a separate entry of the source. Where no end group is shown, it is not given here. The star is where a group is joined. Myristoyl = CCCCCCCCCCCCCC(=O)*

Assays:
[1] = tested on: late-LTP in hippocampal slices of PKMζ-null mice; test: Late-LTP recording (fEPSP) in hippocampal slices of PKMζ-null mice; assay type: cell-based, mouse; conditions: for effect on late-LTP, tetanized pathway: 10 μM applied 3 h post-tetanization; for effect on baseline synaptic transmission, untetanized pathway: 10 μM in bath
Method: (§1) Acute mouse hippocampal slices (450 μm) were prepared as previously described (17, 73). Hippocampi from 2-6-month-old male C57/B6 or PKM ζ-null mice as previously described (17) were dissected, bathed in ice-cold dissection buffer, and sliced with a McIlwain tissue slicer in a cold room (4° C.). The dissection buffer contained (in mM): 125 NaCl, 2.5 KCl, 1.25 NaH2PO4, 26 NaHCO3, 11 glucose, 10 MgCl2, and 0.5 CaCl2), and was bubbled with 95% O2/5% CO2 to maintain pH at 7.4. After dissection the slices were immediately transferred into an Oslo-type interface recording chamber (31.5±1° C.) (73). The recording superfusate consisted of (in mM): 118 NaCl, 3.5 KCl, 2.5 CaCl2), 1.3 MgSO4, 1.25 NaH2PO4, 24 NaHCO3, and 15 glucose, bubbled with 95% O2/5% CO2, with a flow rate of 0.5 ml/min. In a subset of experiments a custom-made recirculation system employing piezoelectric pumps was used for recycling the superfusate (Bartels Mikrotechnik GmbH, Dortmund, Germany) (73).
(§2) Field EPSPs were recorded with a glass extracellular recording electrode (2-5 M (2) placed in the CA1 st. radiatum, and concentric bipolar stimulating electrodes (CBBRE75 and 30200; FHC, Bowdoin, ME) were placed on either side within CA3 or CA1. Test stimulation rate was once every 30 sec, alternating every 15 sec between stimulating electrodes. Based upon a pre-established exclusion criterion, a slice was not used if fEPSP spike threshold was <2 mV on initial input-output analysis. Pathway independence was confirmed by the absence of paired-pulse facilitation between the two pathways. A single stimulating electrode was used for PLA/immunocytochemistry with a test stimulation rate of once every 30 sec. The high-frequency stimulation, optimized to produce a relatively rapid onset of protein synthesis-dependent late-LTP (74), consisted of two 100 Hz-1 s tetanic trains, at 25% of spike threshold, spaced 20 sec apart. The maximum slope of the rise of the fEPSP was analyzed on a PC using the WinLTP data acquisition program (75).
Replicates are biological because there is only one measurement for each sample. Drug/vehicle comparisons were performed blindly. Sample sizes vary for the different experimental approaches (biochemistry, slice physiology, and behavior) and were established by power analyses based on effect size estimates from published work or preliminary experiments. The observed effect sizes for binary comparisons are reported as Cohen's d and as η^2p for ANOVA effects. Multi-factor comparisons were performed using ANOVA with repeated measures, as appropriate. Two-population Student's/tests were performed to compare protein immunofluorescence intensity between control and potentiated hippocampal slices. For LTP experiments, the responses were first normalized to the mean of the 30 min period prior to tetanization (or equivalent in control pathways), and then the means over 5 min periods were used for statistical comparisons (e.g., pre-tetanization, beginning and end of drug application). Paired Student's t tests were used to compare the change in the potentiated response at time points at the beginning and end of drug application. The degrees of freedom for the critical t values of the/tests and the F values of the ANOVAs are reported as subscripts. Post-hoc multiple comparisons were performed by Newman-Keuls tests as appropriate. Statistical significance was accepted at P<0.05 or appropriate Bonferroni correction for multiple comparisons. […]

[2] = tested on: late-LTP in CA1 st. radiatum of hippocampal slices; test: Late-LTP recording (fEPSP) in hippocampal slices of wild-type mice; assay type: cell-based, mouse; conditions: for effect on established late-LTP (fEPSP slope), tetanized pathway / effect on baseline synaptic transmission, untetanized pathway: wild-type mice; for effect on established late-LTP (fEPSP slope), tetanized pathway: 10 μM applied to the bath 3 h post-tetanization; for effect on baseline synaptic transmission, untetanized pathway: 10 μM in bath; for potentiation after drug washout: drug applied 3 h starting 3 h post-tetanization, then 4-h washout
Method: as §1, §2
Replicates are biological because there is only one measurement for each sample. Drug/vehicle comparisons were performed blindly. Sample sizes vary for the different experimental approaches (biochemistry, slice physiology, and behavior) and were established by power analyses based on effect size estimates from published work or preliminary experiments. The observed effect sizes for binary comparisons are reported as Cohen's d and as η^2p for ANOVA effects. Multi-factor comparisons were performed using ANOVA with repeated measures, as appropriate. Two-population Student's/tests were performed to compare protein immunofluorescence intensity between control and potentiated hippocampal slices. For LTP experiments, the responses were first normalized to the mean of the 30 min period prior to tetanization (or equivalent in control pathways), and then the means over 5 min periods were used for statistical comparisons (e.g., pre-tetanization, beginning and end of drug application). Paired Student's t tests were used to compare the change in the potentiated response at time points at the beginning and end of drug application. The degrees of freedom for the critical t values of the/tests and the F values of the ANOVAs are reported as subscripts. Post-hoc multiple comparisons were performed by Newman-Keuls tests as appropriate. Statistical significance was accepted at P<0.05 or appropriate Bonferroni correction for multiple comparisons.
Now we can test the central prediction of the KIBRA-PKMζ maintenance hypothesis that decoupling PKMζ from KIBRA reverses potentiation of activated synapses. We simultaneously recorded two independent synaptic pathways in st. radiatum within a hippocampal slice. We stimulated one pathway by high-frequency tetanization to induce late-LTP, and in the second pathway we recorded low-frequency test fEPSP responses for the equivalent time. […]

Compound	effect on late-LTP, tetanized pathway [1]	effect on late-LTP, tetanized pathway ([1]; listed as z-stat)	effect on baseline synaptic transmission, untetanized pathway [1]	effect on established late-LTP (fEPSP slope), tetanized pathway [2]	effect on established late-LTP (fEPSP slope), tetanized pathway ([2]; listed as z-stat)	effect on baseline synaptic transmission, untetanized pathway [2]	effect on baseline synaptic transmission, untetanized pathway ([2]; listed as z-stat)	potentiation after drug washout ([2]; wild-type)	potentiation after drug washout ([2]; wild-type, listed as z-stat)	effect on late-LTP when drug is present at tetanization ([2]; wild-type, first pathway, 150 min post-tetanization with drug)	late-LTP in second pathway after washout ([2]; wild-type, tetanized after 1-h washout)
O=S(=O)(O)c1cc(O)c2c(S(=O)(=O)O)cc(S(=O)(=O)O)cc2c1 [ζ-stat, 1-naphthol-3,6,8-trisulphonic acid]	has no effect on late-LTP maintenance	has no effect on late-LTP	has no effect on late-LTP or baseline synaptic transmission	reverses late-LTP maintenance	reverses late-LTP	without measurably affecting synaptic transmission	no effect on baseline synaptic transmission	reversal of potentiation persisted	potentiation does not return	suppresses late-LTP	late-LTP is induced and maintained in second pathway
myr-N-FVRNSLERRSVRMKRPS-C (Myristoyl-FVRNSLERRSVRMKRPS) [K-ZAP]	has no effect on late-LTP maintenance; also recorded: has no effect on PKMz-null-LTP	–	no effect	reverses late-LTP maintenance	–	no measurable effect on baseline synaptic transmission; also recorded: no effect on untetanized pathway	–	–	–	–	–
